Among the data in US20120101093A1, “SUBSTITUTED IMIDAZO[1,2-A]PYRIDINE DERIVATIVES, PHARMACEUTICAL COMPOSITIONS, AND METHODS OF USE AS BETA-SECRETASE INHIBITORS” (HIGH POINT PHARMACEUTICALS, LLC, priority 2009, published 2012) are IC50 values, retold here.

This assay has as its target T1, BACE-1 enzyme (Homo sapiens, UniProt P56817).
T1 construct: purchased R & D Systems 931AS
Kind of assay: BACE Fluorescence Resonance Energy Transfer (FRET) Assay. The class given is biochemical. Particulars: pH 4-4.5, 30 min pre-incubation, about 1.5 hours reaction. A digest of the protocol: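 BACE-1 enzyme pre-incubated 30 min with compound in 7.5% DMSO in 50 mM sodium acetate pH 4-4.5, 0.01% CHAPS, 0.0125% Triton X-100, 0.006% EDTA. Rhodamine/quencher peptide substrate added; ~1.5 h at room temperature, fluorescence read at 540/585 nm. IC50 or percent inhibition at one concentration.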

T1 sequence (P56817 46-457 limits assumed): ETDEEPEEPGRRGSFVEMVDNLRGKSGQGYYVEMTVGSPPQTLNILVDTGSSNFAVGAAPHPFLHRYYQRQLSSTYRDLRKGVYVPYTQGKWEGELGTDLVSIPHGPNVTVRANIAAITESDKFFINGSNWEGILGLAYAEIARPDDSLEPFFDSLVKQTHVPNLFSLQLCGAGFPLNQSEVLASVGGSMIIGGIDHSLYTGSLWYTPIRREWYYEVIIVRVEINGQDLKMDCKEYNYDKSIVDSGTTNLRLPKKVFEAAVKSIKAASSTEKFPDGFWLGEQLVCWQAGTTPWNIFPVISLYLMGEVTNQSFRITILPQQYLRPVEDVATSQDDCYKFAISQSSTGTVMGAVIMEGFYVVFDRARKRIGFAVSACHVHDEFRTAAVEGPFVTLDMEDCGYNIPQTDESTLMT

By IC50 is commonly meant the concentration that gives 50% inhibition. A lower IC50 goes with greater potency in that assay. As to `CC(C)CN(C)Cc1cccc2nc(C(=O)Nc3nc4cc(-c5cccc(C(F)(F)F)c5)ccc4[nH]3)cn12` [Example 191, 5-[(Isobutyl-methyl-amino)-methyl]-imidazo[1,2-a]pyridine-2-carboxylic acid [5-(3-trifluoromethyl-phenyl)-1H-benzoimidazol-2-yl]-amide], the IC50 was 1.53 µM. Consider `CC(C)(C)NCc1cccn2cc(C(=O)Nc3nc4cc(-c5cccc(C(F)(F)F)c5)ccc4[nH]3)nc12` [Example 193, 8-(tert-Butylamino-methyl)-imidazo[1,2-a]pyridine-2-carboxylic acid [5-(3-trifluoromethyl-phenyl)-1H-benzoimidazol-2-yl]-amide], for which half-maximal inhibition (IC50) required 1.65 µM. On to `CCN(C)Cc1cccn2cc(C(=O)Nc3nc4cc(-c5cccc(C(F)(F)F)c5)ccc4[nH]3)nc12` [Example 195, 8-[(Ethyl-methyl-amino)-methyl]-imidazo[1,2-a]pyridine-2-carboxylic acid [5-(3-trifluoromethyl-phenyl)-1H-benzoimidazol-2-yl]-amide], for which half-maximal inhibition (IC50) required 1.08 µM. The result for `O=C(Nc1nc2cc(-c3cccc(C(F)(F)F)c3)ccc2[nH]1)c1cn2cccc(CN3CCOCC3)c2n1` [Example 198, 8-Morpholin-4-ylmethyl-imidazo[1,2-a]pyridine-2-carboxylic acid [5-(3-trifluoromethyl-phenyl)-1H-benzoimidazol-2-yl]-amide] reads 1.14 µM; that for `O=C(Nc1nc2cc(-c3cccc(C(F)(F)F)c3)ccc2[nH]1)c1cn2ccc(CO)cc2n1` [Example 200, 7-Hydroxymethyl-imidazo[1,2-a]pyridine-2-carboxylic acid [5-(3-trifluoromethyl-phenyl)-1H-benzoimidazol-2-yl]-amide], 0.46 µM; that for `O=C(Nc1nc2cc(-c3cccc(C(F)(F)F)c3)ccc2[nH]1)c1cn2ccc(CN3CCNCC3)cc2n1` [Example 203, 7-Piperazin-1-ylmethyl-imidazo[1,2-a]pyridine-2-carboxylic acid [5-(3-trifluoromethyl-phenyl)-1H-benzoimidazol-2-yl]-amide], 0.66 µM. Compound `COCCNCc1ccn2cc(C(=O)Nc3nc4cc(-c5cccc(C(F)(F)F)c5)ccc4[nH]3)nc2c1` [Example 208, 7-[(2-Methoxy-ethylamino)-methyl]-imidazo[1,2-a]pyridine-2-carboxylic acid [5-(3-trifluoromethyl-phenyl)-1H-benzoimidazol-2-yl]-amide] came in with an IC50 of 0.23 µM.

Compound `O=C(Nc1nc2cc(-c3cccc(C(F)(F)F)c3)ccc2[nH]1)c1cn2ccc(CNCCN3CCOCC3)cc2n1` [Example 210, 7-[(2-Morpholin-4-yl-ethylamino)-methyl]-imidazo[1,2-a]pyridine-2-carboxylic acid [5-(3-trifluoromethyl-phenyl)-1H-benzoimidazol-2-yl]-amide] gave an IC50 of 0.18 µM.

The compound `CCN(CCO)Cc1ccn2cc(C(=O)Nc3nc4cc(-c5cccc(C(F)(F)F)c5)ccc4[nH]3)nc2c1` [Example 211, 7-{[Ethyl-(2-hydroxy-ethyl)-amino]-methyl}-imidazo[1,2-a]pyridine-2-carboxylic acid [5-(3-trifluoromethyl-phenyl)-1H-benzoimidazol-2-yl]-amide] yielded an IC50 of 0.24 µM.

The compound `CN(C)CCNCc1ccn2cc(C(=O)Nc3nc4cc(-c5cccc(C(F)(F)F)c5)ccc4[nH]3)nc2c1` [Example 212, 7-[(2-Dimethylamino-ethylamino)-methyl]-imidazo[1,2-a]pyridine-2-carboxylic acid [5-(3-trifluoromethyl-phenyl)-1H-benzoimidazol-2-yl]-amide] showed an IC50 of 0.26 µM. Under `Cn1cc(-c2cccc3nc(C(=O)Nc4nc5cc(-c6cccc(C(F)(F)F)c6)ccc5[nH]4)cn23)cn1` [Example 213, 5-(1-methyl-1H-pyrazol-4-yl)-N-{5-[3-(trifluoromethyl)phenyl]-1H-benzimidazol-2-yl}imidazo[1,2-a]pyridine-2-carboxamide] stands 0.26 µM; under `O=C(Nc1nc2cc(-c3cccc(C(F)(F)F)c3)ccc2[nH]1)c1cn2cccc(-c3ccccc3)c2n1` [Example 216, 8-phenyl-N-{5-[3-(trifluoromethyl)phenyl]-1H-benzimidazol-2-yl}imidazo[1,2-a]pyridine-2-carboxamide], 0.65 µM; under `O=C(Nc1nc2cc(-c3cccc(C(F)(F)F)c3)ccc2[nH]1)c1cn2c(-c3ccncc3)cccc2n1` [Example 217, 5-(pyridin-4-yl)-N-{5-[3-(trifluoromethyl)phenyl]-1H-benzimidazol-2-yl}imidazo[1,2-a]pyridine-2-carboxamide], 0.15 µM. In the case of `O=C(Nc1nc2cc(-c3cccc(C(F)(F)F)c3)ccc2[nH]1)c1cn2c(C3CCNCC3)cccc2n1` [Example 218, 5-(piperidin-4-yl)-N-{5-[3-(trifluoromethyl)phenyl]-1H-benzimidazol-2-yl}imidazo[1,2-a]pyridine-2-carboxamide], the IC50 was determined as 0.45 µM. This IC50 lies about 3-fold higher than the previous one.

As to `CCCc1cccc2nc(C(=O)Nc3nc4cc(-c5cccc(C(F)(F)F)c5)ccc4[nH]3)cn12` [Example 220, 5-propyl-N-{5-[3-(trifluoromethyl)phenyl]-1H-benzimidazol-2-yl}imidazo[1,2-a]pyridine-2-carboxamide], inhibition was half-maximal at 0.38 µM (IC50). As to `CCCc1cccc2nc(C(=O)Nc3nc4cc(-c5cccc(OC(F)(F)F)c5)ccc4[nH]3)cn12` [Example 221, 5-propyl-N-{5-[3-(trifluoromethoxy)phenyl]-1H-benzimidazol-2-yl}imidazo[1,2-a]pyridine-2-carboxamide], the midpoint of inhibition, the IC50, lay at 0.28 µM. Turning to `CC(C)c1cccc2nc(C(=O)Nc3nc4cc(-c5cccc(C(F)(F)F)c5)ccc4[nH]3)cn12` [Example 222, 5-(propan-2-yl)-N-{5-[3-(trifluoromethyl)phenyl]-1H-benzimidazol-2-yl}imidazo[1,2-a]pyridine-2-carboxamide], half-maximal inhibition (IC50) required 1.23 µM. Under `CC(C)c1cccc2nc(C(=O)Nc3nc4cc(-c5cccc(OC(F)(F)F)c5)ccc4[nH]3)cn12` [Example 223, 5-(propan-2-yl)-N-{5-[3-(trifluoromethoxy)phenyl]-1H-benzimidazol-2-yl}imidazo[1,2-a]pyridine-2-carboxamide] stands 0.83 µM; under `CCc1cccc2nc(C(=O)Nc3nc4cc(-c5cccc(OC(F)(F)F)c5)ccc4[nH]3)cn12` [Example 224, 5-ethyl-N-{5-[3-(trifluoromethoxy)phenyl]-1H-benzimidazol-2-yl}imidazo[1,2-a]pyridine-2-carboxamide], 0.55 µM; under `O=C(Nc1nc2cc(-c3cc(F)cc(Cl)c3)ccc2[nH]1)c1cn2c(C(=O)NC3CCNCC3)cccc2n1` [Example 225, Imidazo[1,2-a]pyridine-2,5-dicarboxylic acid 2-{[5-(3-chloro-5-fluoro-phenyl)-1H-benzoimidazol-2-yl]-amide} 5-piperidin-4-ylamide], 0.48 µM.

The compound `CNC(=O)c1cccn2cc(C(=O)Nc3nc4cc(-c5cccc(C(F)(F)F)c5)ccc4[nH]3)nc12` [Example 229, Imidazo[1,2-a]pyridine-2,8-dicarboxylic acid 8-methylamide 2-{[5-(3-trifluoromethyl-phenyl)-1H-benzoimidazol-2-yl]-amide}] registered an IC50 of 0.16 µM.

`CN(C)C(=O)c1cccn2cc(C(=O)Nc3nc4cc(-c5cccc(C(F)(F)F)c5)ccc4[nH]3)nc12` [Example 230, Imidazo[1,2-a]pyridine-2,8-dicarboxylic acid 8-dimethylamide 2-{[5-(3-trifluoromethyl-phenyl)-1H-benzoimidazol-2-yl]-amide}] had an IC50 of 0.28 µM. This IC50 lies about 1.8-fold higher than the previous one.

In the case of `COCCNC(=O)c1cccn2cc(C(=O)Nc3nc4cc(-c5cccc(C(F)(F)F)c5)ccc4[nH]3)nc12` [Example 231, Imidazo[1,2-a]pyridine-2,8-dicarboxylic acid 8-[(2-methoxy-ethyl)-amide] 2-{[5-(3-trifluoromethyl-phenyl)-1H-benzoimidazol-2-yl]-amide}], 0.31 µM corresponded to half-maximal inhibition (IC50). In turn, `O=C(Nc1nc2cc(-c3cccc(Cl)c3)ccc2[nH]1)c1cn2cc(N3CC[C@H](O)C3)ccc2n1` [Example 232, 6-((S)-3-Hydroxy-pyrrolidin-1-yl)-imidazo[1,2-a]pyridine-2-carboxylic acid [5-(3-chloro-phenyl)-1H-benzoimidazol-2-yl]-amide] registered an IC50 of 0.14 µM. This IC50 lies about 2.2-fold lower than the previous one. The compound `CO[C@H]1CCN(c2ccc3nc(C(=O)Nc4nc5cc(-c6cccc(Cl)c6)ccc5[nH]4)cn3c2)C1` [Example 233, 6-((S)-3-Methoxy-pyrrolidin-1-yl)-imidazo[1,2-a]pyridine-2-carboxylic acid [5-(3-chloro-phenyl)-1H-benzoimidazol-2-yl]-amide] gave an IC50 of 0.41 µM.

`O=C(Nc1nc2cc(-c3cccc(Cl)c3)ccc2[nH]1)c1cn2cc(OCCOC3CCCCO3)ccc2n1` (stereo not shown) [Example 234, 6-[2-(Tetrahydro-pyran-2-yloxy)-ethoxy]-imidazo[1,2-a]pyridine-2-carboxylic acid [5-(3-chloro-phenyl)-1H-benzoimidazol-2-yl]-amide] gave an IC50 of 0.35 µM. This IC50 and that of the compound before are within 1.5-fold of each other. The compound `Cc1c(N2CC[C@H](O)C2)ccc2nc(C(=O)Nc3nc4cc(-c5cc(F)cc(Cl)c5)ccc4[nH]3)cn12` [Example 235, 6-((S)-3-Hydroxy-pyrrolidin-1-yl)-5-methyl-imidazo[1,2-a]pyridine-2-carboxylic acid [5-(3-chloro-5-fluoro-phenyl)-1H-benzoimidazol-2-yl]-amide] yielded an IC50 of 0.69 µM. Against the preceding compound, the IC50 is about 2-fold higher.

Regarding `CO[C@@H]1CCN(c2ccc3nc(C(=O)Nc4nc5cc(-c6cc(F)cc(Cl)c6)ccc5[nH]4)cn3c2C)C1` [Example 236, 6-((R)-3-Methoxy-pyrrolidin-1-yl)-5-methyl-imidazo[1,2-a]pyridine-2-carboxylic acid [5-(3-chloro-5-fluoro-phenyl)-1H-benzoimidazol-2-yl]-amide], the IC50 is 0.25 µM.
